Like-named read-outs stand apart in the source and are kept apart here.
Legend:
[1] = Clearance (comments of Table V); format: in vitro ADME
[2] = tested on: retinal ganglion cell axons; experiment: Protection of retinal ganglion cell axons from degeneration following optic nerve transection, RT 97 axon density (Table V); format: in vivo
Excerpt: Efficacy of representative compounds from different immunophilin ligand series in protecting retinal ganglion cell axons from degeneration following optic nerve transection is set forth in Table V.

FKBP12 = FKBP12 (Homo sapiens, UniProt P62942); experiment: Inhibition of peptidyl-prolyl isomerase (rotamase) activity of FKBP, chymotrypsin-coupled assay; format: biochemical
Excerpt: The inhibition of the prolyl peptidyl cis-trans isomerase activity of FKBP may be measured as an indicator of this affinity.
Inhibition of the peptidyl-prolyl isomerase (rotamase) activity of the compounds used in the inventive methods and pharmaceutical compositions can be evaluated by known methods described in the literature (Harding et al., Nature, 1989, 341:758-760; Holt et al. J. Am. Chem. Soc., 115:9923-9938). These values are obtained as apparent Ki 's and are presented for representative compounds in TABLE B.
The cis-trans isomerization of an alanine-proline bond in a model substrate, N-succinyl-Ala-Ala-Pro-Phe-p-nitroanilide, is monitored spectrophotometrically in a chymotrypsin-coupled assay, which releases para-nitroanilide from the trans form of the substrate. The inhibition of this reaction caused by the addition of different concentrations of inhibitor is determined, and the data is analyzed as a change in first-order rate constant as a function of inhibitor concentration to yield the apparent Ki values.
In a plastic cuvette are added […] of ice cold assay buffer (25 mM HEPES, pH 7.8, 100 mM NaCl), 10 mL of FKBP (2.5 mM in 10 mM Tris-Cl pH 7.5, 100 mM NaCl, 1 mM dithiothreitol), 25 mL of chymotrypsin (50 mg/ml in 1 mM HCl) and […] of test compound at various concentrations in dimethyl sulfoxide. The reaction is initiated by the addition of 5 mL of substrate (succinyl-Ala-Phe-Pro-Phe-para-nitroanilide, 5 mg/mL in 2.35 mM LiCl in trifluoroethanol).
The absorbance at 390 nm versus time is monitored for 90 seconds using a spectrophotometer and the rate constants are determined from the absorbance versus time data files.

[3] = apparent Ki, Table B, read-out: Ki

Sequence of FKBP12 (P62942 whole entry): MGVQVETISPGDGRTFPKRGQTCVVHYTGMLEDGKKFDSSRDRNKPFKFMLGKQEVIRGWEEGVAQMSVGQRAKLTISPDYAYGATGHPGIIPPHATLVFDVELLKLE

For `CCC(C)(C)C(=O)C(=O)N1CCC[C@H]1C(=O)O` [L], the Clearance [1] was 5.2 µL/min and the “RT 97 RCC axon density 11 days after ON transection (36 ON axon rescued)” value (“RT 97 RCC axon density 11 days” below) [2] was 7.8%.

In the case of `CCC(C)(C)C(=O)C(=O)N1CCCC[C@H]1C(=O)O` [G], the “RT 97 RCC axon density 11 days” value [2] is reported as 34.0%.

In the case of `CN(C)C(=O)N1CCC[C@H]1C(=O)SCCCc1ccccc1` [N], the Clearance [1] is reported as 21.9 µL/min.

In the case of `O=C(OCCCCc1ccccc1)C1CCCCN1S(=O)(=O)c1ccccc1` (stereo not shown) [Compound 6, 4-phenyl-1-butyl-N-(benzene-sulfonyl)pipecolate], the Ki (FKBP12; [3]) is reported as 0.47 µM.

For `O=C(SCCCc1ccccc1)[C@@H]1CCCN1S(=O)(=O)Cc1ccccc1` [C], the Clearance [1] was 31.1 µL/min and the “RT 97 RCC axon density 11 days” value [2] was 60.4%.

With `CCC(C)(C)C(=O)C(=O)N1CCS[C@H]1C(=O)OCCCc1cccnc1` [F] the “RT 97 RCC axon density 11 days” value [2] was 55.1% and the Ki (FKBP12; Table V, read-out: Ki rotomase) was 0.272 µM.

`Cc1ccc(S(=O)(=O)N2CCCCC2C(=O)OCCCCc2ccccc2)cc1` (stereo not shown) [Compound 5, 4-phenyl-1-butyl-N-(para-toluene-sulfonyl)pipecolate] showed a Ki (FKBP12; [3]) of 0.504 µM.

In the case of `O=C(SCCCc1ccccc1)[C@@H]1CCCN1C(=O)NC12CC3CC(CC(C3)C1)C2` [B], the “RT 97 RCC axon density 11 days” value [2] is reported as 100%.

For `CCC(C)(C)C(=O)CN1CCCCC1C(=O)OC(CCc1ccccc1)CCc1ccccc1` (stereo not shown) [E], the Clearance [1] was 42.8 µL/min and the “RT 97 RCC axon density 11 days” value [2] was 56.6%.

For `O=C(OCCCc1cccnc1)[C@@H]1CCCN1C(=S)NC1CCCCC1` [I], the Clearance [1] was 8.0 µL/min and the “RT 97 RCC axon density 11 days” value [2] was 23.8%.

In the case of `CCC(C)(C)C(=O)C(=O)N1CCC[C@H]1C(=O)SCCC(c1ccccc1)c1ccccc1` [M], the Clearance [1] is reported as 12.5 µL/min and the “RT 97 RCC axon density 11 days” value [2] is reported as -6.3%.

In the case of `CCC(C)(C)C(=O)C(=O)N1CCCC[C@H]1C(=O)CCCCc1cccnc1` [J], the Clearance [1] is reported as 1.5 µL/min, the “RT 97 RCC axon density 11 days” value [2] is reported as 15.8% and the Ki (FKBP12; Table V, read-out: Ki rotomase) is reported as 0.21 µM.

In the case of `CCC(C)(C)C(=O)C(=O)N1CCCC[C@H]1C(=O)O` [H], the “RT 97 RCC axon density 11 days” value [2] is reported as 30.3%.

For `CCC(C)(C)C(=O)C(=O)N1CCCC[C@H]1C(=O)SCCC(c1ccccc1)c1ccccc1` [K], the Clearance [1] was 4.5 µL/min and the “RT 97 RCC axon density 11 days” value [2] was 13.0%.

With `Cc1ccc(S(=O)(=O)N2CCCCC2C(=O)OC(CCCc2ccccc2)CCCc2ccccc2)cc1` (stereo not shown) [Compound 3, 1,7-diphenyl-4-heptyl-N-(para-toluene-sulfonyl)pipecolate] the Ki (FKBP12; [3]) was 0.107 µM.

With `O=C(OCCCCc1ccccc1)[C@@H]1CCCCN1S(=O)(=O)Cc1ccccc1` [D] the “RT 97 RCC axon density 11 days” value [2] was 58.4%.
